Source: ChEMBL document CHEMBL1131826, “Targeting nitric oxide to cancer cells: cytotoxicity studies of glyco-S-nitrosothiols” (1999)
Values joined by “and” are separate entries in the source; they are usually repeats but may differ in a detail not shown here. Identical values can stand only once.

Legend:
Format in all cases: functional
DU-145 [1] = experiment: Cytotoxicity was evaluated against DU-145 human prostate cancer cells at 2 log dose
DU-145 [2] = experiment: Cytotoxicity towards DU145 human prostate cancer cell was expressed as median effect dose (MED)
DU-145 [3] = experiment: Cytotoxicity was evaluated against DU-145 human prostate cancer cells at 10 uM concentration
DU-145 [4] = experiment: Cytotoxicity was evaluated against DU-145 human prostate cancer cells at 50 uM concentration
DU-145 [5] = experiment: Cytotoxicity was evaluated against DU-145 human prostate cancer cells at 1.4 log dose
DU-145 [6] = experiment: Cytotoxicity was evaluated against DU-145 human prostate cancer cells at 15 uM concentration
DU-145 [7] = experiment: Cytotoxicity was evaluated against DU-145 human prostate cancer cells at 0.7 log dose
DU-145 [8] = experiment: Cytotoxicity was evaluated against DU-145 human prostate cancer cells at 0.3 log dose
DU-145 [9] = experiment: Cytotoxicity was evaluated against DU-145 human prostate cancer cells at 1.7 log dose
DU-145 [10] = experiment: Cytotoxicity was evaluated against DU-145 human prostate cancer cells at 13 uM concentration
DU-145 [11] = experiment: Cytotoxicity was evaluated against DU-145 human prostate cancer cells at 20 uM concentration
DU-145 [12] = experiment: Cytotoxicity was evaluated against DU-145 human prostate cancer cells at 35 uM concentration
DU-145 [13] = experiment: Cytotoxicity was evaluated against DU-145 human prostate cancer cells at 110 uM concentration
DU-145 [14] = experiment: Cytotoxicity was evaluated against DU-145 human prostate cancer cells at 1.5 log dose
DU-145 [15] = experiment: Cytotoxicity was evaluated against DU-145 human prostate cancer cells at 100 uM concentration
DU-145 [16] = experiment: Cytotoxicity was evaluated against DU-145 human prostate cancer cells at 60 uM concentration
DU-145 [17] = experiment: Cytotoxicity was evaluated against DU-145 human prostate cancer cells at 180 uM concentration

Row | SMILES | Log effect (DU-145 [1]) | MED (DU-145 [2]) [µM] | Surviving fraction (DU-145 [3]) | Surviving fraction (DU-145 [4]) | Log effect (DU-145 [5]) | Surviving fraction (DU-145 [6]) | Log effect (DU-145 [7]) | Log effect (DU-145 [8]) | Log effect (DU-145 [9]) | Surviving fraction (DU-145 [10]) | Surviving fraction (DU-145 [11]) | Surviving fraction (DU-145 [12]) | Surviving fraction (DU-145 [13]) | Log effect (DU-145 [14]) | Surviving fraction (DU-145 [15]) | Surviving fraction (DU-145 [16]) | Surviving fraction (DU-145 [17])
1 | CC(=O)N[C@@H](C(=O)NC1C(O)OC(CO)C(O)C1O)C(C)(C)SN=O (stereo not given in full) | 0 and -0.01 | 32 |  |  |  |  |  |  |  |  |  |  |  |  |  |  | 
2 | CC(=O)N[C@@H](C(=O)N[C@]1(CO)O[C@H](CO)[C@@H](O)[C@@H]1O)C(C)(C)SN=O |  | 8.5 | 0.6 | 0.2 | 0.6 | 0.5 | -0.03 | -0.06 | 0.9 | 0.55 | 0.45 |  |  |  |  |  | 
3 | CC(=O)N[C@@H](C(=O)O)C(C)(C)SN=O |  | 110 |  |  | 0 |  |  |  |  |  |  | 1 | 0.5 | 0 | 0.6 | 1 | 0.2
